Experimental data reported in US20220009920A1 (GB005, Inc., priority 2020, published 2022).
Read-outs that look alike come from different tables or passages of the source.

Assay: Plasma and total brain concentrations at 1 h post single oral administration to female C57BL/6 mice
Format: in vivo
Conditions: mouse, 10 mg/kg oral gavage; for Kp at 1 h: brain/plasma, read-out: brain to plasma ratio
Protocol: The appropriate amount of test article was dissolved 10% dimethylacetamide (DMA)/90% (20% hydroxypropyl-β-cyclodextrin (HP-B-CD) w/v in water to obtain a final concentration of 1 mg/mL for oral dosing. Sonication, vortex, and homogenization was used as needed. Three female C57BL/6 mice aged 7-9 weeks (20-30 grams) were dosed by oral gavage 10 mg/kg solution of the test article.
Concentrations of test compounds in the plasma and brain samples (use plasma and brain homogenate standard curve for all samples appropriately) were analyzed using LC-MS/MS. Compounds having a brain-to-plasma ratio of greater than 0.2 were considered brain penetrant.

[1] = plasma, read-out: Mean [plasma]

Row | Structure (SMILES) | concentration at 1 h (brain, read-out: Mean [brain]) | Kp at 1 h | concentration at 1 h [1]
1 | C=CC(=O)N1CCCC(c2c(F)cc(C(N)=O)c3[nH]c4c(c23)CCCCC4)C1 (single isomer, unassigned) [Compound 5-6] | 16 ng/g | 0.4 | 42 ng/mL
2 | C=CC(=O)N1CCC[C@@H](c2c(F)cc(C(N)=O)c3[nH]c4c(c23)CCC4)C1 [Compound 10-2, (S)-8-(1-acryloylpiperidin-3-yl)-7-fluoro-1,2,3,4-tetrahydrocyclo-penta[b]indole-5-carboxamide] | 72 ng/g | 0.37 | 191 ng/mL
3 | C=CC(=O)N1CCC[C@@H](c2c(F)cc(C(N)=O)c3[nH]c4c(c23)CC2(CC4)CC2)C1 [Compound 6-2, (S)-5-(1-acryloylpiperidin-3-yl)-6-fluoro-1,2,4,9-tetrahydrospiro[carbazole-3,1′-cyclopropane]-8-carboxamide] | 18 ng/g | 0.24 | 78 ng/mL
